Consider eleven compounds from patent US9115137B2, “2,3,4,5-tetrahydro-1H-pyrido[4,3-B]indole compounds and methods of use thereof” (priority 2008, dated 2015).

Test [1] addresses T1, rat adrenergic α1A receptor (Rattus norvegicus, UniProt P43140).
T1 construct: obtained from Wistar Rat submaxillary glands; from tissue; host or cells: Wistar rat submaxillary glands
T1 sequence (P43140 1-466): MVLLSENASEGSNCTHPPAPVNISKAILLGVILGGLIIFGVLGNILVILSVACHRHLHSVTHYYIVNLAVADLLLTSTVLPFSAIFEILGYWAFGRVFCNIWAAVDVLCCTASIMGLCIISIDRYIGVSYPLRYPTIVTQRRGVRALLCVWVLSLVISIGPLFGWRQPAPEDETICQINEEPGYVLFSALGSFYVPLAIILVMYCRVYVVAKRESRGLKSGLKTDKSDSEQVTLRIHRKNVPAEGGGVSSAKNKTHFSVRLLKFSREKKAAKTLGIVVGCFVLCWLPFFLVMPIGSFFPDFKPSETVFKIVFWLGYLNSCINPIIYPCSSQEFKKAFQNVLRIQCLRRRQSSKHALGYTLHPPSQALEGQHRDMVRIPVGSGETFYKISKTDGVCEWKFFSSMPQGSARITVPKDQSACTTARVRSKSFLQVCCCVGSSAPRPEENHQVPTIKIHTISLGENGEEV
Description: Adrenergic α1A radioligand binding ([3H]Prozosin). Particulars: compound at 1 μM; Wistar Rat submaxillary glands; read-out: Adrenergic (1 μM) α1A, percent inhibition of specific binding. Here is the method: To evaluate in radioligand binding assays the activity of compounds of the invention, rat adrenergic α1A receptor obtained from Wistar Rat submaxillary glands (Michel, A. D. et al., Br. J. Pharmacol. 98:883, 1989) in a modified Tris-HCl buffer (50 mM Tris-HCl buffer, pH 7.4, 0.5 mM EDTA) was used. Compounds of the invention were incubated with 0.25 nM [^3H]Prozosin for 60 minutes at 25° C. Non-specific binding was estimated in the presence of 10 μM phentolamine. Receptor proteins were filtered and washed, the filters were then counted to determine [^3H]Prozosin specifically bound. Compounds of the invention were screened at 1 μM or lower, using 1% DMSO as vehicle. Compounds of the invention were tested in this biochemical assay and percent inhibition of specific binding was determined. Biochemical assay results are presented as the percent inhibition of specific binding in Table 6.

Test [2] deals with T2, rat adrenergic α1B receptor (Rattus norvegicus, UniProt P15823).
T2 construct: obtained from Wistar Rat liver; from tissue; host or cells: Wistar rat liver
T2 sequence (P15823 1-515): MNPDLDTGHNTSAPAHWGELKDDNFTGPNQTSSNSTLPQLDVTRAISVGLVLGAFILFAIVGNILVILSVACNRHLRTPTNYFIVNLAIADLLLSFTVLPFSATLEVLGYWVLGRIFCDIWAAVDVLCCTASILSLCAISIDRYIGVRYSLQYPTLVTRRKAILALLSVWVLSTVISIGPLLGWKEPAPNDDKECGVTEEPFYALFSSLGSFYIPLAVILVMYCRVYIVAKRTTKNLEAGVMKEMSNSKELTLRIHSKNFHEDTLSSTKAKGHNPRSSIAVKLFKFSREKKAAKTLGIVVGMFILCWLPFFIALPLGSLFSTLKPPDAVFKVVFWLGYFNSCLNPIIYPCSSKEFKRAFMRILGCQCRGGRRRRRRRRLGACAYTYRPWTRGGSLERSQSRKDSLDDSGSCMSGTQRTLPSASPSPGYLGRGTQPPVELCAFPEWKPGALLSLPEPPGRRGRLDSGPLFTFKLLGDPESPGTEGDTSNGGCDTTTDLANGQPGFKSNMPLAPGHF
Description: Adrenergic α1B radioligand binding ([3H]Prozosin). Particulars: compound at 1 μM; Wistar Rat liver; read-out: Adrenergic (1 μM) α1B, percent inhibition of specific binding. Here is the method: To evaluate in radioligand binding assays the activity of compounds of the invention, rat adrenergic α1B receptor obtained from Wistar Rat liver (Garcia-S'ainz, J. A. et al., Biochem. Biophys. Res. Commun. 186:760, 1992; Michel A. D. et al. Br. J. Pharmacol. 98:883, 1989) in a modified Tris-HCl buffer (50 mM Tris-HCl buffer, pH 7.4, 0.5 mM EDTA) was used. Compounds of the invention were incubated with 0.25 nM [^3H]Prozosin for 60 minutes at 25° C. Non-specific binding was estimated in the presence of 10 μM phentolamine. Receptor proteins were filtered and washed, the filters were then counted to determine [^3H]Prozosin specifically bound. Compounds were screened at 1 μM or lower, using 1% DMSO as vehicle. Compounds of the invention were tested in this biochemical assay and percent inhibition of specific binding was determined. Biochemical assay results are presented as the percent inhibition of specific binding in Table 6.

Test [3] deals with T3, human recombinant serotonin (5-Hydroxytryptamine) 5-HT5A receptor (Homo sapiens, UniProt P47898).
T3 construct: expressed in transfected cells; host or cells: CHO-K1 cells
The experiment in a line: Serotonin 5-HT5A radioligand binding ([3H]LSD). Particulars: compound at 1 μM; CHO-K1 cells; read-out: Serotonin (1 μM) 5-HT5A, percent inhibition of specific binding. Here is the method:
To evaluate in radioligand binding assays the activity of compounds of the invention, human recombinant serotonin (5-Hydroxytryptamine) 5-HT5A receptor expressed in Chinese hamster ovary (CHO-K1) cells (Rees, S. et al., FEBS Lett. 355:242, 1994) in a modified Tris-HCl buffer (50 mM Tris-HCl, pH 7.4, 10 mM MgCl2, 0.5 mM EDTA) was used. Compounds of the invention were incubated with 1.7 nM [^3H]Lysergic acid diethylamide (LSD) for 60 minutes at 37° C. Non-specific binding was estimated in the presence of 100 μM Serotonin (5-HT). Receptor proteins were filtered and washed, the filters were then counted to determine [^3H]LSD specifically bound. Compounds were screened at 1 μM or lower, using 1% DMSO as vehicle. Compounds of the invention were tested in this biochemical assay and percent inhibition of specific binding was determined. Biochemical assay results are presented as the percent inhibition of specific binding in Table 7.

A word on the inhibition: it is the drop in the measured response relative to a control, in per cent.

T3 sequence (P47898 whole entry): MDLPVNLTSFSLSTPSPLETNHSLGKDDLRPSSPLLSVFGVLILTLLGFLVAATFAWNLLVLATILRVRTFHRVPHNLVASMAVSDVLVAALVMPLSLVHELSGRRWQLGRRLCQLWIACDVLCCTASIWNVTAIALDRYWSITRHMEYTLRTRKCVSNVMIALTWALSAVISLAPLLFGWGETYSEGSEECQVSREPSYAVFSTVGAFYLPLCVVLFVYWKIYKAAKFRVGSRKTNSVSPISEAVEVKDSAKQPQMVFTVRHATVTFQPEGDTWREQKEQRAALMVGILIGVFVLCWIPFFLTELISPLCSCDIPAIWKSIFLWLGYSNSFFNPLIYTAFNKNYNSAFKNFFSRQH

Regarding `CCOC(=O)CCn1c2c(c3cc(C)ccc31)CN(C)CC2` [CD1, ethyl 3-(1,2,3,4-tetrahydro-2,8-dimethylpyrido[4,3-b]indol-5-yl)propanoate], the inhibition at 1 µM in test [1] is 79%; in test [2], 42%; in test [3], 39%.

On to `Cc1ccc2c(c1)c1c(n2CC#N)CCN(C)C1` [CD61, 2-(1,2,3,4-tetrahydro-2,8-dimethylpyrido[4,3-b]indol-5-yl)acetonitrile], for which the inhibition at 1 µM in test [1] was determined as 82%; in test [2], 94%; in test [3], 52%.

For the compound `C#CCn1c2c(c3cc(C)ccc31)CN(C)CC2` [CD73, 2,8-dimethyl-5-(prop-2-ynyl)-2,3,4,5-tetrahydro-1H-pyrido[4,3-b]indole], the inhibition at 1 µM is 65% in test [1], 84% in test [2] and 63% in test [3].

Regarding `CNC(=O)CCn1c2c(c3cc(C)ccc31)CN(C)CC2` [Compound 1, 3-(1,2,3,4-tetrahydro-2,8-dimethylpyrido[4,3-b]indol-5-yl)-N-methylpropanamide], the figures for the inhibition at 1 µM in test [1], in test [2] and in test [3] were 5%, 13% and 4%, respectively.

`CCNC(=O)CCn1c2c(c3cc(C)ccc31)CN(C)CC2` [Compound 2, N-ethyl-3-(1,2,3,4-tetrahydro-2,8-dimethylpyrido[4,3-b]indol-5-yl)propanamide]: the inhibition at 1 µM in test [1] came out at 10%; in test [2] it was 22%; in test [3] it was 14%.

Turning to `Cc1ccc2c(c1)c1c(n2CCC(=O)NC2CCCCC2)CCN(C)C1` [Compound 3, N-cyclohexyl-3-(1,2,3,4-tetrahydro-2,8-dimethylpyrido[4,3-b]indol-5-yl)propanamide], the inhibition at 1 µM came to 8% in test [1], 14% in test [2] and 35% in test [3].

For `Cc1ccc2c(c1)c1c(n2CCC(=O)NC2CCCC2)CCN(C)C1` [Compound 4, N-cyclopentyl-3-(1,2,3,4-tetrahydro-2,8-dimethylpyrido[4,3-b]indol-5-yl)propanamide], the inhibition at 1 µM in test [1] turned out to be 35%; in test [2], 41%; in test [3], 47%.

Regarding `CCOC(=O)CCCn1c2c(c3cc(C)ccc31)CN(C)CC2` [Compound 5, ethyl 4-(1,2,3,4-tetrahydro-2,8-dimethylpyrido[4,3-b]indol-5-yl)butanoate], the inhibition at 1 µM in test [1] came to 69%; in test [2], 77%; in test [3], 62%.

For `CCNC(=O)CCCn1c2c(c3cc(C)ccc31)CN(C)CC2` [Compound 6, N-ethyl-4-(1,2,3,4-tetrahydro-2,8-dimethylpyrido[4,3-b]indol-5-yl)butanamide], the inhibition at 1 µM was determined as 18% in test [1], 31% in test [2] and 25% in test [3].

With `Cc1ccc2c(c1)c1c(n2CCNC(=O)OCC(Cl)(Cl)Cl)CCN(C)C1` [Compound 8, 2,2,2-trichloroethyl 2-(1,2,3,4-tetrahydro-2,8-dimethylpyrido[4,3-b]indol-5-yl)ethylcarbamate], the inhibition at 1 µM in test [1] was 82%; in test [2], 80%; in test [3], 60%.

Take `Cc1ccc2c(c1)c1c(n2CCNC(=O)C2CCCNC2)CCN(C)C1` (stereo not drawn) [Compound 9, N-(2-(1,2,3,4-tetrahydro-2,8-dimethylpyrido[4,3-b]indol-5-yl)ethyl)piperidine-3-carboxamide]: the inhibition at 1 µM in test [1] was 5%; in test [2], 21%; in test [3], -6%.
